Measurements reported in ChEMBL document CHEMBL3580643, “Structure-Activity Relationships of Neplanocin A Analogues as S-Adenosylhomocysteine Hydrolase Inhibitors and Their Antiviral and Antitumor Activities” (J Med Chem, 2015).
pEC50, pIC50: −log10 of the molar value.

How the values were obtained:
[1] = Cytotoxicity against human SKHEP1 cells assessed as inhibition of cell proliferation after 72 hrs by sulforhodamine B assay; type: functional, cell-based; conditions: SK-HEP1, 72 h
Adenosylhomocysteinase = Adenosylhomocysteinase (Homo sapiens, UniProt P23526); test: Inhibition of recombinant human placental AdoHcy hydrolase expressed in Escherichia coli BL21 using AdoHcy as substrate preincubated for 10 mins followed by substrate addition measured after 20 mins by DTNB coupled assay
[2] = Cytotoxicity against human SNU638 cells assessed as inhibition of cell proliferation after 72 hrs by sulforhodamine B assay; type: functional, cell-based; conditions: SNU-638, 72 h
MDA-MB-231 = test: Cytotoxicity against human MDA-MB-231 cells assessed as inhibition of cell proliferation after 72 hrs by sulforhodamine B assay; type: functional, cell-based; conditions: MDA-MB-231, 72 h
PC-3 = test: Cytotoxicity against human PC3 cells assessed as inhibition of cell proliferation after 72 hrs by sulforhodamine B assay; type: functional, cell-based; conditions: PC-3, 72 h
A549 = test: Cytotoxicity against human A549 cells assessed as inhibition of cell proliferation after 72 hrs by sulforhodamine B assay; type: functional, cell-based; conditions: A549, 72 h
HCT-116 = test: Cytotoxicity against human HCT116 cells assessed as inhibition of cell proliferation after 72 hrs by sulforhodamine B assay; type: functional, cell-based; conditions: HCT-116, 72 h
HeLa = test: Cytotoxicity against human HeLa cells assessed as cell viability up to 40 uM after 3 days by MTT assay; type: cell-based; conditions: 72 h
[3] = system: Vesicular stomatitis virus; test: Antiviral activity against vesicular stomatitis virus infected in human HeLa cells assessed as inhibition of viral replication after 3 days by MTT assay; type: functional, organism-based; conditions: 72 h
[4] = Cytotoxicity against CB1 cells (unknown origin) assessed as cell viability up to 100 uM after 3 days by MTT assay; type: cell-based; conditions: cb1, 72 h
Picornaviridae = test: Antiviral activity against picornavirus infected in CB1 cells assessed as inhibition of viral replication after 3 days by MTT assay; type: functional, organism-based; conditions: CB1, 72 h

Adenosylhomocysteinase, sequence (P23526 whole entry): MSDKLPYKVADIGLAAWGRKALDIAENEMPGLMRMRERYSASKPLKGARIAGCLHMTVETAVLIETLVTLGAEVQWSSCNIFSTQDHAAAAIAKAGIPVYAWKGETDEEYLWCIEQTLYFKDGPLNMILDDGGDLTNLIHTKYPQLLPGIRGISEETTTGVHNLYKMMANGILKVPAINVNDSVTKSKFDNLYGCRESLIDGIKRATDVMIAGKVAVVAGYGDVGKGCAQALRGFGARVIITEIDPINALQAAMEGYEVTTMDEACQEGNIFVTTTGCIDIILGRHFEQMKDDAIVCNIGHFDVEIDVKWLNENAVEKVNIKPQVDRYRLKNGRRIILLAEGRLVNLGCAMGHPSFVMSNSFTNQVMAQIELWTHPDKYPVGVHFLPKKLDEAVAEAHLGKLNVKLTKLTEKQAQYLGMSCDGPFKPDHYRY

`Nc1ncnc2c1ccn2[C@@H]1C=C(CCO)[C@@H](O)[C@H]1O` showed a pIC50 [1] of 4.38, a pIC50 (Adenosylhomocysteinase) of under 4.00 and a pIC50 [2] of 4.52. It also gave a pIC50 (MDA-MB-231) of 4.58, a pIC50 (PC-3) of under 4.00 and a pIC50 (A549) of 4.47. It also gave a pIC50 (HCT-116) of 4.49.

In the case of `Nc1nccc2c1ncn2[C@@H]1C=C(CCO)[C@@H](O)[C@H]1O`, the pIC50 [1] was 4.54, the pIC50 (Adenosylhomocysteinase) was 5.42 and the pIC50 [2] was 4.55. For the same compound, the pIC50 (MDA-MB-231) was 5.10, the pIC50 (PC-3) was under 4.00 and the pIC50 (A549) was 4.12. The pIC50 (HCT-116) was 4.75.

Work on `Nc1ncnc2c1ncn2[C@@H]1C=C(CO)[C@@H](O)[C@H]1O` [NEOPLANOCIN A] yielded a pIC50 [1] of 5.35, a pIC50 (Adenosylhomocysteinase) of 6.33 and a pIC50 [2] of 6.15. It also gave a pIC50 (MDA-MB-231) of 6.40, a pIC50 (PC-3) of 5.43 and a pIC50 (A549) of 5.91. The pIC50 (HCT-116) was 6.05.

`OCC1=C[C@@H](n2ccc3c(O)ncnc32)[C@H](O)[C@@H]1O` gave a pIC50 [1] of under 4.00, a pIC50 (Adenosylhomocysteinase) of under 4.00 and a pIC50 [2] of under 4.00. For the same compound, the pIC50 (MDA-MB-231) was under 4.00, the pIC50 (PC-3) was under 4.00 and the pIC50 (A549) was under 4.00. It also gave a pIC50 (HCT-116) of under 4.00.

`Nc1nccc2c1ncn2[C@@H]1C=C(CO)[C@@H](O)[C@H]1O` gave a pIC50 [1] of 6.14, a pIC50 [2] of 6.04 and a pIC50 (MDA-MB-231) of 6.52. The pIC50 (PC-3) was 5.03, the pIC50 (A549) was 5.85 and the pIC50 (HCT-116) was 6.59.

With `Nc1ncnc2c1ncn2[C@@H]1C(F)=C(CO)[C@@H](O)[C@H]1O` [FLUORO-NEPLANOCIN A] the Activity (HeLa) was “Non-toxic”, the pIC50 [1] was 6.10 and the pIC50 (Adenosylhomocysteinase) was 6.62. It also gave a pIC50 [2] of 5.66, a pEC50 [3] of 6.37 and a pIC50 (MDA-MB-231) of 5.85. It also gave a pIC50 (PC-3) of 5.85, a pIC50 (A549) of 5.92 and a pIC50 (HCT-116) of 5.55.

In the case of `Nc1ncnc2c1ncn2[C@@H]1C(F)=C(CCO)[C@@H](O)[C@H]1O`, the pIC50 [1] was 5.09, the pIC50 (Adenosylhomocysteinase) was 6.04 and the pIC50 [2] was 5.43. The pIC50 (MDA-MB-231) was 5.16, the pIC50 (PC-3) was under 4.00 and the pIC50 (A549) was 4.93. It also gave a pIC50 (HCT-116) of 5.54.

Compound `CNc1ncnc2c1ccn2[C@@H]1C=C(CO)[C@@H](O)[C@H]1O` has a pIC50 [1] of 4.00, a pIC50 (Adenosylhomocysteinase) of under 4.00 and a pIC50 [2] of under 4.00. It also gave a pIC50 (MDA-MB-231) of 4.31, a pIC50 (PC-3) of under 4.00 and a pIC50 (A549) of under 4.00. The pIC50 (HCT-116) was under 4.00.

Work on `Nc1ncnc2c1ccn2C1C=C(CO)[C@@H](O)[C@H]1O` (single isomer, unassigned) [DEAZANEPLANOCIN A] yielded a pIC50 [1] of 5.93, a pIC50 (Adenosylhomocysteinase) of under 4.00 and a pIC50 [2] of 5.92. It also gave a pIC50 (MDA-MB-231) of 6.10, a pIC50 (PC-3) of 5.79 and a pIC50 (A549) of 5.74. The pIC50 (HCT-116) was 4.98.

For `COc1cc([C@@H]2c3cc4c(cc3[C@@H](O[C@@H]3O[C@@H]5CO[C@@H](C)O[C@H]5[C@H](O)[C@H]3O)[C@H]3COC(=O)[C@H]23)OCO4)cc(OC)c1O` [ETOPOSIDE], the pIC50 [1] was 5.55, the pIC50 [2] was 6.52 and the pIC50 (MDA-MB-231) was 5.11. The pIC50 (A549) was 6.40.

Work on `Nc1ncnc2c1ccn2[C@@H]1C(F)=C(CO)[C@@H](O)[C@H]1O` yielded a pIC50 [1] of 5.86, a pIC50 (Adenosylhomocysteinase) of under 4.00 and a pIC50 [2] of 6.02. The Activity [4] was “Non-toxic”, the pIC50 (MDA-MB-231) was 6.03 and the pIC50 (PC-3) was 5.89. For the same compound, the pEC50 (Picornaviridae) was 5.63, the pIC50 (A549) was 4.77 and the pIC50 (HCT-116) was 6.03.

With `OCC1=C(F)[C@@H](n2ccc3c(O)ncnc32)[C@H](O)[C@@H]1O` the pIC50 [1] was under 4.00, the pIC50 (Adenosylhomocysteinase) was under 4.00 and the pIC50 [2] was under 4.00. For the same compound, the pIC50 (MDA-MB-231) was under 4.00, the pIC50 (PC-3) was under 4.00 and the pIC50 (A549) was under 4.00. It also gave a pIC50 (HCT-116) of under 4.00.

For `Nc1ncnc2c1ncn2[C@@H]1C=C(CCO)[C@@H](O)[C@H]1O`, the pIC50 [1] was 5.21, the pIC50 [2] was 5.64 and the pIC50 (MDA-MB-231) was 5.58. It also gave a pIC50 (PC-3) of under 4.00, a pIC50 (A549) of 5.05 and a pIC50 (HCT-116) of 5.76.

In the case of `Nc1ccn([C@@H]2O[C@H](CO)[C@@H](O)[C@@H]2O)c(=O)n1` [CYTARABINE], the pIC50 [1] was 5.67, the pIC50 [2] was 5.40 and the pIC50 (MDA-MB-231) was 5.86. It also gave a pIC50 (PC-3) of 4.30, a pIC50 (A549) of 5.92 and a pIC50 (HCT-116) of 5.62.

With `CNc1ncnc2c1ccn2[C@@H]1C(F)=C(CO)[C@@H](O)[C@H]1O` the pIC50 [1] was under 4.00, the pIC50 (Adenosylhomocysteinase) was under 4.00 and the pIC50 [2] was under 4.00. The pIC50 (MDA-MB-231) was under 4.00, the pIC50 (PC-3) was under 4.00 and the pIC50 (A549) was under 4.00. For the same compound, the pIC50 (HCT-116) was under 4.00.
